Source: patent US10258640B2, “Method of inhibiting quorum sensing in Pseudomonas aeruginosa” (priority 2015, dated 2019)

How the values were obtained:
[1] = test system: las quorum-sensing system; assay: PA01 lasB-gfp cell-based fluorescence reporter assay; parameters: species or system Pseudomonas aeruginosa; details: various micromolar concentrations
Description: The inhibition of quorum sensing has been observed by the inventors during a chemical screen set up to look for small-molecule inhibitors of quorum sensing in P. aeruginosa. The assay used is a cell-based fluorescence assay (PA01 lasB-gfp) in which the expression of GFP is controlled by a las-regulated promoter. Inhibition of induction of the las quorum-sensing system by a small molecule is marked by the reduction in GFP signal relative to an untreated sample.

[2] = test system: rhl quorum-sensing system; assay: PA01 rhlA-gfp reporter assay; assay type: cell-based, Pseudomonas aeruginosa; details: various micromolar concentrations
[3] = test system: pqs quorum-sensing system; assay: PA01 pqsA-gfp reporter assay; assay type: cell-based, Pseudomonas aeruginosa; details: various micromolar concentrations
P. aeruginosa = assay: Growth of P. aeruginosa; assay type: cell-based, Pseudomonas aeruginosa; details: low micromolar concentrations
P. aeruginosa proteome = assay: Proteomic analysis of auranofin-treated cultures; assay type: cell-based, Pseudomonas aeruginosa; details: proteome in presence or absence of auranofin
[4] = test system: lasA, rhlA, pqsA, exsC, pscL, pilM and pilY genes; assay: Quantitative RT-PCR of RNA levels; assay type: cell-based, Pseudomonas aeruginosa
elastase (LasB) = assay: Elastase activity in culture supernatants (commercial elastase activity kit); assay type: cell-based, Pseudomonas aeruginosa; details: culture supernatants after 7 hours of treatment, various micromolar concentrations
Procedure: LasB levels were measured using a commercial elastase activity kit.

rhamnolipids = assay: Rhamnolipid levels in culture supernatants (MRM mass spectrometry); assay type: cell-based, Pseudomonas aeruginosa; details: culture supernatants after 7 hours of treatment, various micromolar concentrations
Procedure: Rhamnolipid levels were determined using multiple reaction monitoring (MRM) mass spectrometry.

pyocyanin = assay: Pyocyanin levels in culture supernatants (absorbance at 691 nm); assay type: cell-based, Pseudomonas aeruginosa; details: culture supernatants after 7 hours of treatment, various micromolar concentrations
Procedure: Pyocyanin levels were determined via absorbance at 691 nm.

P. aeruginosa (PA01) [5] = assay: Swarming motility assay; assay type: cell-based, Pseudomonas aeruginosa; details: 10 μM
Description: (§1) The top-left and bottom-left petri dishes contain P. aeruginosa (PA01) and PA01-lasIrhlI, respectively, serving as the controls.

P. aeruginosa (PA01) [6] = assay: Twitching motility assay; assay type: cell-based, Pseudomonas aeruginosa; details: 10 μM
Description: as §1

P. aeruginosa (PA01) [7] = assay: Swimming motility assay; assay type: cell-based, Pseudomonas aeruginosa; details: 10 μM
[8] = target: wild-type Vfr binding to the promoter of lasR (plasR) (Pseudomonas aeruginosa, UniProt P55222); assay: Electrophoretic mobility shift assay (EMSA), wild-type Vfr; details: increasing concentrations
Description: (§2) It depicts auranofin inhibiting the binding of wild-type Vfr, but not of the mutant pentaCys variant, to a DNA fragment containing the lasR promoter sequence (plasR) in a dose dependent manner.
(§3) It was hypothesized that auranofin inhibits Vfr, a global response regulator dependent on cyclic-AMP, which is known to control Type III secretion, Type IV pilus assembly and the quorum sensing networks (las and rhl). This was validated using electrophoretic mobility shift assays (EMSA) (see FIG. 6). Based on the EMSA, it can be seen that the binding of wild-type Vfr to the promoter of lasR (plasR), was inhibited by treatment with auranofin. In contrast, the binding of mutant Vfr proteins (C38S/C97S or C38S/C183S) to the same DNA fragment was not inhibited by auranofin.

[9] = test system: mutant Vfr proteins (C38S/C97S or C38S/C183S) binding to plasR; assay: Electrophoretic mobility shift assay (EMSA), mutant Vfr; parameters: species or system Pseudomonas aeruginosa; details: increasing concentrations
Description: as §2, §3

[10] = test system: Δvfr strain expressing pentaCys Vfr; assay: Twitching motility in Δvfr strain complemented with pentaCys Vfr; assay type: cell-based, Pseudomonas aeruginosa
[11] = test system: Δvfr strain expressing pentaCys Vfr; assay: Quorum sensing (LasB production) in Δvfr strain complemented with pentaCys Vfr; assay type: cell-based, Pseudomonas aeruginosa
P. aeruginosa biofilms = assay: Biofilm treatment (GFP-expressing cells, propidium iodide staining, imaging); assay type: cell-based, Pseudomonas aeruginosa
Procedure: FIG. 8 depicts the effects of auranofin, and its combination either with colistin or tobramycin, on the morphology of biofilms formed using P. aeruginosa cells expressing green fluorescent protein (GFP). DNA from dead cells were labeled with propidium iodide. Auranofin was added either prior to (lower panels) or after formation of the biofilm (24 h before imaging, middle panels). Colistin and tobramycin were added after formation of the biofilm (24 h before imaging, middle panels). […] Scale bar: 5 μm.
Quorum sensing inhibitors are known to affect biofilm morphology and structure. Since auranofin inhibits Vfr, which in turn affects quorum sensing, the effects of auranofin treatment on P. aeruginosa biofilms were investigated.

Chain of wild-type Vfr binding to the promoter of lasR (plasR) (P55222 whole entry, the tested form may be a part): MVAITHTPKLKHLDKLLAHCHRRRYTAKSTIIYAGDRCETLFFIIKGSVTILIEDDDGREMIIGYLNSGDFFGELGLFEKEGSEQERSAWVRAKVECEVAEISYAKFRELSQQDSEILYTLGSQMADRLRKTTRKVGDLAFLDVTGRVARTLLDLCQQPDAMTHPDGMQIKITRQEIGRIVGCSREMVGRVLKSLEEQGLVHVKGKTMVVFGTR

Row | Compound | induction of las (PA01 lasB-gfp) quorum-sensing network, RFU/OD against time [1] | induction of rhl (PA01 rhlA-gfp) quorum-sensing network, RFU/OD against time [2] | induction of pqs (PA01 pqsA-gfp) quorum-sensing network, RFU/OD against time [3] | effect on growth of P. aeruginosa (P. aeruginosa) | cellular levels of proteins controlled by quorum sensing (P. aeruginosa proteome) | levels of proteins involved in Type III secretion and formation of the Type IV pilus (P. aeruginosa proteome) | RNA levels of quorum-sensing regulated, Type III secretion and Type IV pilus assembly genes [4] | level of virulence factor LasB (elastase activity) (elastase (LasB)) | level of virulence factor rhamnolipids (rhamnolipids) | level of virulence factor pyocyanin (pyocyanin) | swarming motility (P. aeruginosa (PA01) [5]) | twitching motility (P. aeruginosa (PA01) [6]) | swimming motility (P. aeruginosa (PA01) [7]) | binding of wild-type Vfr to the promoter of lasR (plasR) [8] | binding of mutant Vfr proteins to the same DNA fragment (plasR) [9] | twitching in the strain expressing the pentaCys Vfr [10] | QS (LasB production) in the strain expressing the pentaCys Vfr [11] | biofilm morphology disruption and killing, together with colistin (P. aeruginosa biofilms; auranofin together with colistin) | biofilm morphology disruption and killing, together with tobramycin (P. aeruginosa biofilms; auranofin together with tobramycin) | effect on biofilm morphology and cell death (P. aeruginosa biofilms; auranofin treatment prior to biofilm formation)
1 | CC(=O)OC[C@H]1O[C@@H]([S-])[C@H](OC(C)=O)[C@@H](OC(C)=O)[C@@H]1OC(C)=O.CCP(CC)CC.[Au+] [auranofin] | completely inhibiting | completely inhibiting | completely inhibiting | not affecting growth | down-regulated | down-regulation | generally down-regulated | reduced | reduced | reduced | inhibit | inhibit | does not inhibit | inhibited | not inhibited | still able to inhibit | still able to inhibit | synergistic effects | synergistic effects | substantial cell death and the loss of the characteristic morphology of normal biofilms
2 | OC[C@H]1O[C@H]([S-])[C@H](O)[C@@H](O)[C@@H]1O.[Au+] [aurothioglucose] | completely inhibiting |  |  |  |  |  |  |  |  |  |  |  |  |  |  |  |  |  |  | 
3 | sodium aurothiomalate | completely inhibiting |  |  |  |  |  |  |  |  |  |  |  |  |  |  |  |  |  |  | 
